Key:
[1] = target: T1, 5-lipoxygenase (Mus musculus, UniProt P48999); assay: In vitro 5-lipoxygenase inhibition, release of LTC4 from zymosan-stimulated peritoneal macrophages; format: cell-based; details: zymosan-stimulated mouse peritoneal macrophage cells, 10^-5 mole/l
T1 construct: A cell suspension containing peritoneal cells from male mice 8-10 weeks old was obtained in a known manner; endogenous in cells; host or cells: mouse peritoneal macrophages (primary, adherent)
T1 sequence (P48999 1-674): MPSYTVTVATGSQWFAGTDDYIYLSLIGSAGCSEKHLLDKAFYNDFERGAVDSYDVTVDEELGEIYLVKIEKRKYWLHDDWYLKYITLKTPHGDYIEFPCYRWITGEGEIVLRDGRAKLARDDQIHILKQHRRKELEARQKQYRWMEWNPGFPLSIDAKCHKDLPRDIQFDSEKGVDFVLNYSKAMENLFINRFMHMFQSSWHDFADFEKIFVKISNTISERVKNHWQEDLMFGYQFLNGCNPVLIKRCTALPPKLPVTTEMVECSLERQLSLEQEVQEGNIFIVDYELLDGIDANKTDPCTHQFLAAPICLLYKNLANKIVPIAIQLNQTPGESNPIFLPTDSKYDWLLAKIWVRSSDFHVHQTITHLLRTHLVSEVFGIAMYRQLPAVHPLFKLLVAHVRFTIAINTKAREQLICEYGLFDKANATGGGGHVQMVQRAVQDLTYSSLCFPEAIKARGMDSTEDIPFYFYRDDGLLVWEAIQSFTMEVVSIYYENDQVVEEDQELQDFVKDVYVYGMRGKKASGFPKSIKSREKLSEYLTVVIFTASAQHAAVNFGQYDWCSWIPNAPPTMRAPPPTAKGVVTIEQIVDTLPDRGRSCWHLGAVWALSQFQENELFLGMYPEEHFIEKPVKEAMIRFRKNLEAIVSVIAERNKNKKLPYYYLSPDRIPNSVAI
Source text: (§1) 5. In Vitro Determination of Cyclooxygenase Inhibition And 5-lipoxygenase Inhibition.
(§2) After a cell is activated, arachidonic acid contained in cell membranes is metabolized in two ways. Leucotrienes, inter alia leucotriene C4, are formed due to the action of the enzyme 5-lipoxygenase (=5-LO), and prostanoids are formed due to the action of the enzyme cyclooxygenase (=CO). In in vitro systems these metabolites are secreted from the cell.
(§3) To evaluate the cyclooxygenase-inhibiting and 5-lipoxygenase-inhibiting properties of the test substances, their inhibitory activity on the biosynthesis of the arachidonic acid derivatives leucotriene C4 (=LTC4) and 6-keto-prostaglandin F1α (=6-keto-PGF1α) was determined in vitro on mouse peritoneal macrophage cells. For this purpose the LTC4 and 6-keto-PGF1α contents of a mouse peritoneal macrophage cell culture medium were determined by zymosan stimulation as described by Scott et al. (J. Exp. Med. 152 (1980), 324-335) and by Fradin et al., (Prostaglandins, 33 (1987), 579-589).
(§4) A cell suspension containing peritoneal cells from male mice 8-10 weeks old was obtained in a known manner. A solution marketed under the designation RPMI 1640 (Manufactured by Gibco) was used as the cell culture medium, to which heparin (10 international units/ml) and antibiotics were added according to the procedure of Bonney et al. (Biochem. J. 176 (1978) 422-433). The cell suspension was adjusted to a cell concentration of 10^6 cells per ml and distributed uniformly on titer dishes containing 24 1-ml titer cells (wells). These were kept for two hours in a humidified incubator filled with air enriched with 7% CO2. Cells not adhering to the titer well walls were then removed by washing. The remaining macrophage cells adhering to the walls were incubated for about 12 hours in a suspension medium to which 0.1% of bovine serum albumin (BSA=Bovine Serum Albumin) was added. The suspension medium was then replaced by a Hanks salt solution (=Hanks Balanced Salt Solution=HBSS) with 10 mmoles of HEPES (=hydroxyethylpiperazinoethanesulfonic acid) to which a 0.1% strength solution of the test substances in aqueous, 1% strength dimethylformamide or only the solvent had been added. After 15 minutes the arachidonic acid metabolism was stimulated by adding […] of zymosan (=glycoprotein mixture isolated from cell walls of beer yeast, Saccharomyces cerevisiae, Manufactured by Sigma Chemical Co., Munich) per titre cell. After 2 hours samples of the respective supernatant liquid in each cell were examined for their 6-keto-PGF1α and LTC4 contents by an enzyme immunoassay (=EIA). This EIA is carried out following the method of Pradelles et al. (Analytical Chem. 57 (1985), 1170-1173). The determination of LTC4 and the determination of 6-keto-PGF1α were each carried out on suitable dilutions of the samples (1:50 to 1:250 for the LTC4 determination and 1:250 to 1:1,250 for the 6-keto-PGF1α determination) in comparison with a comparative scale. To determine the inhibiting effect of a 10^-5 molar concentration of the compounds, the amounts of reference eicosanoid were determined, and the inhibiting effect was calculated therefrom in % inhibition compared to the measurements of the zymosan controls.

[2] = target: T2, cyclooxygenase (Mus musculus, UniProt P22437); assay: In vitro cyclooxygenase inhibition, release of 6-keto-PGF1α from zymosan-stimulated peritoneal macrophages; format: cell-based; details: zymosan-stimulated mouse peritoneal macrophage cells, 10^-5 mole/l
T2 construct: A cell suspension containing peritoneal cells from male mice 8-10 weeks old was obtained in a known manner; endogenous in cells; host or cells: mouse peritoneal macrophages (primary, adherent)
T2 sequence (P22437 27-602): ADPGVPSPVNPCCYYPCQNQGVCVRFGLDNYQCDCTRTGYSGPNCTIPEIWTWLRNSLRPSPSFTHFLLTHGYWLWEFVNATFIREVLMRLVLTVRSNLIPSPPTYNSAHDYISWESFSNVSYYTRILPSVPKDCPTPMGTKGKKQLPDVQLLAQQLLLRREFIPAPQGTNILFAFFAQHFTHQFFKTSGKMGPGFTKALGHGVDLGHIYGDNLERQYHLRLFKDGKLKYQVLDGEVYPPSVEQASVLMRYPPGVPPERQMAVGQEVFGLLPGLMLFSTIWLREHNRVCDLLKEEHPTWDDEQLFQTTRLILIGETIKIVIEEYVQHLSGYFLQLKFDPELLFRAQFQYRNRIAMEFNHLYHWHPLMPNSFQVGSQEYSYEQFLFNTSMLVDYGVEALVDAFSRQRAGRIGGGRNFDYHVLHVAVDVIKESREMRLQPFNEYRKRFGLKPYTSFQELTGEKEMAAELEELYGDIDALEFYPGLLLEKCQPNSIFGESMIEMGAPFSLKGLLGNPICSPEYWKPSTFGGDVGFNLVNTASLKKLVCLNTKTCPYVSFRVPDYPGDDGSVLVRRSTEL
Source text: as §1, §2, §3, §4

[3] = tested on: passive cutaneous anaphylaxis (PCA); assay: Inhibition of passive cutaneous anaphylaxis (PCA) in rats; format: in vivo, Sprague-Dawley rats; details: Rattus norvegicus, 1 h, 2 × 10^-5 mole/kg per os, one hour before ovalbumin challenge
Procedure: (§5) 1. Determining Inhibition of Passive Cutaneous Anaphylaxis (PCA) and Histamine-Induced Anaphylactoid Cutaneous Reaction
The PCA reaction is carried out following the methods described by Goose et al. (J. N. Immunology 16 (1969), 749) and by Martin et al. (Arch. Pharmacol. 316 (1981), 186).
The IgE-rich ovalbumin antiserum used in the test was obtained from immunized Brown-Norway rats. The were immunized with an intraperitoneal injection of a mixture of 100 μg of ovalbumin with a Bordetella pertussis suspension (Vaxicoq™, Manufactured by Institute Merieux, containing 5×10^9 organisms and 1.25 mg Al(OH)3). After 20 days the animals were re-immunized with a further intraperitoneal injection of a solution of 10 μg ovalbumin in 0.5 ml physiological saline solution. After a further four days the blood was removed from the animals and centrifuged. The resulting antiserum was stored at -20° C. until use.
(§6) The inhibition of the passive cutaneous anaphylaxis and of the anaphylactoid cutaneous reaction induced by histamine was determined as follows:
(§7) Sprague-Dawley rats having a body weight of 150-180 g were injected intradermally in one flank with 50 μl of a 1:75 dilution of the IgE-rich ovalbumin antiserum in physiological saline solution to passively sensitize them to ovalbumin.
(§8) 24 hours after sensitization a solution of 8.25 mg/kg of ovalbumin and 26.4 mg/kg of a blue dye (Evans's Blue) was administered to the rats intravenously according to Martin et al. to trigger passive cutaneous anaphylaxis.
(§9) On the day of the experiment the test substances were dissolved in distilled water which contained 1 vol. % dimethylformamide and 1 vol. % of Tween™ 20 (=polyoxyethylene (20) sorbitan monolaurate). One hour before administration of the ovalbumin challenge, each animal was orally administered 2×10^-5 mole/kg of test substance in 0.5 ml of solution. For comparison purposes a control group received only the solvent.
(§10) The edematous anaphylactic (PCA) and anaphylactoid (histamine-induced) reactions caused by the stimulation of the intravenous ovalbumin injection, which manifested themselves by edema formation, swelling and exudation of blue dye, were evaluated 30 minutes after their initiation by the intravenous ovalbumin injection. This was done by visually determining the extent to which the blue dye emerged at the sites of edema formation. The percentage inhibition of anaphylactic and anaphylactoid reactions induced by the test substances in comparison with the reactions of the control animals not treated with any test substance was determined using comparison scales.
(§11) The results obtained using compounds of formula I according to the foregoing test methods are shown in the following Table A. The example numbers given for the compounds of formula I relate to the subsequent preparative examples.

[4] = tested on: mice; details: mouse, in vivo, 1440 min
Procedure: 2. Determination of Minimum Toxic Dose
Maximum doses of 300 mg/kg of the test substance were administered orally to male mice weighing 20-25 g. The animals were observed carefully for 3 hours for toxicity symptoms. In addition, all symptoms and deaths were recorded over a period of 24 hours after administration. Associated symptoms were also observed and recorded. If death or severe toxic symptoms were observed, additional mice were administered increasingly lower doses. The lowest dose which produced death or severe toxic symptoms is given in the following Table B as the minimum toxic dose.

[5] = tested on: PAF-induced aggregation of rabbit blood platelets; assay: Anti-PAF activity in vitro, PAF-induced platelet aggregation; format: cell-based, rabbit (New Zealand hybrids); details: Oryctolagus cuniculus, test substance 10^-5 mole/l, pH 7.4
Source text: 4. Determination of Anti-PAF Activity In Vitro
PAF (=Platelet Activating Factor) is a phospholipid mediator which has many effects. Activation of platelet aggregation induces protracted broncho-contraction and hyper-reactivity of the air paths.
In this test the effect of the test substances on platelet aggregation induced by adding PAF to a suspension of platelets obtained from rabbit blood is investigated using the method described by Mikashima et al. (Jap. J. Pharmacol. 44 (1987) 387-391).
A suspension of platelets obtained from rabbit blood containing 4×10^9 platelets/ml in a modified Tyrode buffer solution (=Tyrode solution with 1.3 mM/l CaCl2 and 2.5 g/l gelatine added) adjusted to pH 7.4 was used. Tyrode solution is an aqueous solution containing 136.9 mmoles NaCl, 2.68 mmoles KCl, 2.31 mmoles CaCl2, 1.0 mmole MgCl2, 11.9 mmoles NaHCO3, 1.45 mmoles NaH2 PO4 and 5.55 mmoles glucose per liter. The platelets were obtained from 10 ml blood samples from each of three rabbits (New Zealand hybrids, body weight 3-4 kg). For this the blood samples were treated with ethylenediamine tetraacetic acid and washed according to the method of Artley et al. (Brit. J. Hematol. 19 (1970), 7-17). A platelet-rich plasma was then initially separated by centrifuging (20 minutes at 400×g). The blood platelets were separated from the plasma by recentrifuging for 15 minutes at 1,400×g. The platelets remaining as sediment after centrifuging were resuspended in a Tyrode buffer solution (but without calcium). 0.4 mmole of lysine acetylsalicylate was then added, and after 15 minutes the platelets were sedimented again. The sediment was resuspended in the aforementioned modified Tyrode buffer solution, and the number of platelets in the resulting suspension was adjusted to the desired content.
A 40×10^-9 molar PAF solution was used as a reagent. This solution was made from a 1.8×10^-3 molar stock solution in chloroform. For this purpose a 10 μl sample of the stock solution was evaporated to dryness and redissolved in 180 μl of the modified Tyrode solution to which 0.25% of lipid-free bovine serum albumin had been added. From this 10^-5 molar working solutions were then prepared and stored frozen. Samples of these solutions were appropriately diluted for the tests.
To carry out the test 50 μl of the platelet suspension and 10 μl of a 40×10^-5 molar solution of the compound being investigated were added with stirring (1,000 rpm) to 330 μl of the modified Tyrode buffer solution in an aggregation tube provided with a small magnetic stirrer. This corresponds to a final test substance concentration of 10^-5 mole/l. After 90 seconds preincubation time, 10 μl of the PAF preparation were added. The aggregation occurring in the aggregation tubes was measured over 4-5 minutes with the aid of a computerized aggregometer.
The aggregation which occurred in test tubes containing only platelet suspension was evaluated as 0%, whereas the aggregation which occurred in test tubes containing platelet suspension and PAF preparation was evaluated as 100%. The aggregation which still occurred during the inhibition of the PAF induced platelet aggregation due to the addition of the test substances was measured, and the resulting aggregation inhibition was calculated therefrom in %.

[6] = tested on: histamine-induced anaphylactoid cutaneous reaction; assay: Inhibition of histamine-induced anaphylactoid cutaneous reaction in rats; format: in vivo, Sprague-Dawley rats; details: Rattus norvegicus, 1 h, 2 × 10^-5 mole/kg per os, one hour before ovalbumin challenge
Procedure: as §5, §6, §7, §8
To determine the histamine-induced anaphylactoid skin reaction, the animals are injected intradermally in the flank opposite to the antiserum administration with 50 μl of a physiological saline solution containing 0.8 mg/ml histamine directly before the intravenous injection of the solution containing the ovalbumin and the blue dye.
as §9, §10, §11

% inhibition upon release of LTC4 [1] [%]	% inhibition upon release of 6-keto-PGF1α [2] [%]	SMILES	inhibition in vivo at 20 µmol/kg [3] [%]	Minimum toxic dose [4] [mg/kg]	inhibition at 10 µM [5] [%]	inhibition in vivo at 20 µmol/kg [6] [%]
72	36	Cc1ccnc(N2CCN(C3Sc4ccccc4NC3=O)CC2)c1 (stereo not drawn) [Example 5, 2-[4-(4-methylpyridin-2-yl)-piperazin-1-yl]-2H-1,4-benzothiazine-3(4H)-one]				
		Cc1ccnc(N2CCN(CCCC3Oc4ccc(C)cc4NC3=O)CC2)c1 (stereo not drawn) [Example 22]	69	300	42	45
